In patent US20130216614A1, “IMMUNOGENIC COMPOSITIONS AND METHODS FOR TREATING NUEROLOGIC DISORDERS” (Glaxosmithkline Biologicals S.A., priority 2010, published 2013):

What was measured:
CD11b+ monocytes = assay: Peripheral blood CD11b+ monocyte number by flow cytometry after single injection; assay type: in vivo, C57BL/6 mice; settings: for CD11b+ monocyte number in peripheral blood: 24 hrs after single injection; for circulating monocytes in peripheral blood: intramuscular injection; for circulating monocytes in peripheral blood / total monocytes in the peripheral blood: 24 hrs, normal count 5%; for total monocytes in the peripheral blood: intraperitoneal route
Source text: Monocytes are the peripheral blood precursor cells of microglia (Rezaie, P., et al 1999. Microglia in the human fetal spinal cord—patterns of distribution, morphology and phenotype. Brain Res. Dev. Brain Res. 115:71-81: Mildner et al Nat Neurosci. 2007 December; 10(12):1544-53. Epub 2007 Nov. 18. PubMed PMID: 18026096.). During embryonic development, microglia populate the CNS from myeloid lineage precursors in the bone marrow and these cells are circulating in the peripheral blood before becoming macrophages in their infiltrating tissues, such as microglia are for the brain. Markers such as CD11b and Ly6C are immunologicals markers that are present on peripheral blood monocytes and persist when they are infiltrating the brain (Mildner et al., 2007 infra, Lebson L, et al Trafficking CD11b-positive blood cells deliver therapeutic genes to the brain ofamyloid-depositing transgenic mice. J Neurosci. 2010 Jul. 21; 30(29):9651-8. PubMed PMID: 20660248.). To investigate whether 3D MPL containing adjuvants and s are contributing to induce the number of monocytes in the peripheral blood, we have performed a single injection of those molecules and measure after 24 hrs (post injection) the CD11b+ monocytes number by a flow cytometry method (Mildner A, et al Microglia in the adult brain arise from Ly-6ChiCCR2+ monocytes only under defined host conditions. Nat Neurosci. 2007 December; 10(12):1544-53. Epub 2007 Nov. 18. PubMed PMID: 18026096). As described in FIG. 3, we are showing an increase of CD11b+ monocyte number having that phenotypic composition of markers :CD11b+, lineage cocktail negative (CD3-, B220-, NK1.1-,Ly6C-) after the injection of 3D MPL or AS15 or AS01B or CRX527 or CRX601. Comparing to a normal monocyte number count in the peripheral blood, which is 5% whereas the intramuscular (i.m.) injection of AS01B, and AS15 are showing an increase of the number of circulating monocytes to up to 20%. Moreover, the injection of 3D MPL or CRX601 or CRX601 using the intraperitoneal route is also showing a 22% of total monocytes in the peripheral blood.
Peripheral blood was drawn from C57BL/6 mice via cardiac puncture with lithium-heparin as anticoagulant, 24-Hour after injection of the TLR adjuvants. Red blood cell lysis was performed twice on pooled blood with Ammonium Chloride-based Buffer (Sigma, Steinheim, Germany) and cells were counted with the EasyCount™ System (Immunicon). After one washing step, 500,000 cells were incubated with Rat anti-Mouse CD16/CD32 (BD Fc Block™ by BD Biosciences) for 10 min. on ice and cells were further incubated for 30 min. with a combination of the following directly conjugated antibodies at their pre-determined optimal concentration as described by Mildner et al., 2007): PerCP labeled-Streptavidin, PE-Hamster anti-Mouse CD3, Rat anti-Mouse CD45R/B220, Rat anti-Mouse Ly-6G, Mouse anti-Mouse NK1.1 APC-conjugated Rat anti-Mouse CD11b, PE-Cy7-conjugated Hamster anti-Mouse CD11c, FITC-Rat Anti-Mouse Ly-6C (all from BD Biosciences) and Pacific Blue™ Rat anti-Mouse CD62L (BioLegend, San Diego, Calif.). Cells were finally washed three times and fixed for 15 min. with a 2% paraformaldehyde solution in PBS. Fluorescence minus one (FMO) controls were always included in the assays for fluorescent compensation setting.
Samples were acquired on a flow cytometer (BD FACSCanto II) and data analyzed with the FACSDiva software (BD Biosciences).
Monocytes were identified by their Side/Forward scatter properties and gated as CD3-/CD45R/B220-/Ly-6G-/NK1.1-(Lineage-)/CD11b+ cells. CD11b+ monocytes frequency was reported as a percentage of the total cells excluding debris.
24-Hour after injection of the TLR adjuvants, peripheral blood was drawn from C57BL/6 mice via cardiac puncture with lithium-heparin as anticoagulant. Red blood cell lysis was performed twice on pooled blood with Ammonium Chloride-based Buffer (Sigma, Steinheim, Germany) and cells were counted with the EasyCount™ System (Immunicon). […]

APPSwe/PS1 mice = assay: T-water maze; assay type: in vivo, mouse; settings: for T maze reversal test compared with group 1 (PBS): 12x weekly; for spatial memory / behaviour in T water maze compared to non-treated mice: twelve weekly injections, CRX 20 μg i.p., 3D MPL 50 μg i.p., AS01B 1/10th human dose i.m.
Protocol: Five groups of APPSwe/PS1 mice have received one a week for a period of 12 weeks the following treatment: • Gr1: APPSwe/PS1+NaCl 0.9% n(=20), i.p. injections • Gr4: APPSwe/PS1+CRX527 (20 μg/mouse, 130 μl, n=10), i.p. injections • Gr5: APPSwe/PS1+CRX601 (20 μg/mouse, 130 μl, n=10), i.p. injections • Gr6: APPSwe/PS1+3D MPL (50 μg/mouse, 130 μl, n=10), i.p. injections • Gr8 APPSwe/PS1+AS15 • Gr9: APPSwe/PS1+AS01B ( 1/10th of human dose μg/kg, 50 μl, n=10), i.m. injections
Mice were tested during the “light on” phase of the day. Behavioral experimenter was blinded to the genetic and treatment status of animals. To assess hippocampal-dependent spatial learning and memory, mice were trained in the T-water maze task. In this paradigm, we evaluate the mouse's ability to remember the spatial location of submerged platform. The T-maze apparatus (length of stem, 64 cm; length of arms, 30 cm; width, 12 cm; height of walls, 16 cm) was made of clear fiberglass and filled with water (23±1° C.) at a height of 12 cm. A platform (11×11 cm) was placed at the end of the target arm and was submerged 1 cm below the surface. The acquisition phase allows to evaluate animals for left-right spatial learning. During the first two trials, platforms were placed on each arms of the maze to test the spontaneous turning preference of the mouse. After these two trials, the least chosen arm was reinforced by the escape platform. The mice were placed in the stem of the T-maze and choose to swim either left or right until they found the submerged platform and escape to it, to a maximum of 60 s. After reaching the platform, the mice remained on it for 20 s and then were immediately placed back in the maze. […] Repeated trials were presented on the same day up to a maximum of 48 trials. A rest period of at least 10-15 min intervened between each block of 10 trials. A mouse was considered to have learned the task when it made no errors in a block of five consecutive trials. The reversal learning phase was then conducted 48 h later.
During this phase, the same protocol was repeated, except that the mice were trained to find the escape platform on the opposite side to that on which they had learned on acquisition phase. The number of trials to reach the criterion (five of five correct choices made on consecutive trials) was measured as well as the latency to find the escape platform.
Further experiments were carried out using the following groups.

Molecule | CD11b+ monocyte in the peripheral blood (CD11b+ monocytes; 5 μg dose i.m., 24 hours) | peripheral blood monocyte count (CD11b+ monocytes; 50 μg dose i.m., 24 hours) | CD11b+ monocyte number in peripheral blood (CD11b+ monocytes) | circulating monocytes in peripheral blood (CD11b+ monocytes) | total monocytes in the peripheral blood (CD11b+ monocytes) [%] | T maze reversal test compared with group 1 (PBS) (APPSwe/PS1 mice; group 9: intra peritoneal 50 ug per mouse) | T maze reversal test compared with group 1 (PBS) (APPSwe/PS1 mice; group 10: i.m. 5 ug per mouse) | spatial memory / behaviour in T water maze compared to non-treated mice (APPSwe/PS1 mice) | spatial memory / behaviour in T water maze compared to non-treated mice (APPSwe/PS1 mice; listed as 3D-MPL) | spatial memory / behaviour in T water maze compared to non-treated mice (APPSwe/PS1 mice; listed as CRX 527) | monocyte count effect (CD11b+ monocytes; 20 μg dose i.m.) | amount enough to trigger an increase of the monocyte count (CD11b+ monocytes; single i.m. injection, six doses 0.2 to 20 μg) [µg] | T maze reversal test compared with group 1 (PBS) (APPSwe/PS1 mice; group 3: i.m. 2 ug per mouse) | spatial memory / behaviour in T water maze compared to non-treated mice (APPSwe/PS1 mice; listed as CRX 601)
3-O-desacyl-4′-monophosphoryl lipid A [3D MPL] | double increase | drop | increase | ≤ 13% | 22 | significantly improved | significantly improved | spatial memory improvement | significant improvements |  |  |  |  | 
CCCCCCCCCCC[C@H](CC(=O)N[C@H]1[C@H](OC[C@H](NC(=O)C[C@@H](CCCCCCCCCCC)OC(=O)CCCCCCCCC)C(=O)O)O[C@H](CO)[C@@H](OP(=O)(O)O)[C@@H]1OC(=O)C[C@@H](CCCCCCCCCCC)OC(=O)CCCCCCCCC)OC(=O)CCCCCCCCC [CRX527] |  |  | increase |  |  |  |  | spatial memory improvement |  | significant improvements |  |  |  | 
CCCCCCCCCCC[C@H](CC(=O)N[C@H]1[C@H](OC[C@H](NC(=O)C[C@@H](CCCCCCCCCCC)OCCCCCCCCCC)C(=O)O)O[C@H](CO)[C@@H](OP(=O)(O)O)[C@@H]1OC(=O)C[C@@H](CCCCCCCCCCC)OCCCCCCCCCC)OCCCCCCCCCC [CRX601] |  |  | increase | up to 12% | 22 |  |  | spatial memory improvement |  |  | down modulated | 1 | significantly improved | significant improvements
